Source: patent US11179471B2, “Peptide for cytosolic delivery” (priority 2017, dated 2021)
Entries after “also recorded” stand apart in the source; their conditions may differ. Residues, ends and D or L forms follow the SMILES beside them.

Key:
Assay type in all cases: cell-based
HeLa cells [1] = test: Release of Alexa 488-dextran (10 kDa) into the cytoplasm, confocal microscopy
Method: Cells; HeLa, peptides; 40 μM, Alexa 488-dextran (10 kDa); 200 μg/mL, treatment; 1 hr in α-MEM(−).
Cells; HeLa, peptides; 40 μM, Alexa 488-dextran (10 kDa); 200 μg/mL, treatment; 1 hr in α-MEM(−). The results are presented as means ±SE (n=3). **; p<0.01 (Student's t-test).
Cells; HeLa, peptides; 40 μM, Alexa 488-dextran (10 kDa); 200 μg/mL, treatment; 1 hr in α-MEM(−). Results are presented as means±SE (n=3). *; p<0.05, **; p<0.01, ***; p<0.001 (one-way ANOVA followed by the Tukey-Kramer honestly significant difference test (post-hoc test)).
(§1) In the presence of each peptide obtained in Example 1 (L17E, L17E/Q21E, HA/E1, HA/E2) (40 μM) or in the absence of the peptides (a control, no peptide), HeLa cells and Alexa 488-dextran (Molecular Probes, 10 kDa) (200 μg/mL) were treated in α-MEM(−) for 1 hour. The cells were washed, and observed with a confocal microscope.
as §1, with “L17Aad)” for “L17E/Q21E, HA/E1, HA/E2)”
as §1, with “(HAad, HA/E2, L17Aad, L17E)” for “(L17E, L17E/Q21E, HA/E1, HA/E2)”
When HeLa cells were incubated with Alexa 488-dextran (10 kDa) (200 μg/mL) as a macromolecular drug model in the presence of HAad (40 μM) in α-MEM(−) for 1 hour, Alexa 488-dextran release into about 75% of cells (cytosol) was observed. In contrast, when the incubation was performed in the presence of L17E, Alexa 488-dextran release into about 50% of the cells was observed.
HeLa cells, Alexa 488-dextran (Molecular Probes, 10 kDa) (200 μg/mL), and HAad; or HeLa cells, Alexa 488-dextran, (Molecular Probes, 10 kDa) (200 μg/mL), and HAad-homoR (20 μM) were treated in α-MEM(−) for 1 hour. The cells were washed, and observed with a confocal microscope.

NIH3T3 cells = test: Intracellular release of dextran (10 kDa) in NIH3T3 cells
Method: Intracellular release of dextran is more difficult in NIH3T3 cells than in HeLa cells. NIH3T3 cells and dextran (10 kDa) were incubated in the presence of HAad, HA/E2, or L17E (40 μM each) in DEME(−) medium for 1 hour in the same manner as in Example 6.

RAW 264.7 cells = test: Cell-killing assay by intracellular delivery of toxin protein saporin (WST-8); details: saporin 10 μg/mL, 40 μM
Method: Saporin is known as a cytotoxin that kills cancer cells by its intracellular delivery. RAW 264.7 cells and saporin (10 μg/mL) were incubated in the presence of HAad, HA/E2, or L17E (40 μM each) in α-MEM(−) medium for 1 hour. After the cells were then washed and the medium was replaced with DMEM(+), the cells were further incubated for 6 hours. The cell viability (%) was assayed by WST-8 assay (FIG. 10).

HeLa cells [2] = test: Nuclear accumulation of NLS-EGFP; details: NLS-EGFP 10 μM; peptide 40 μM; α-MEM(−) 1 hour
Method: The cells and NLS-EGFP (10 μM) were incubated in the presence of HAad or L17E (40 μM each) in α-MEM(−) medium for 1 hour in the same manner as in Example 6. If NLS-EGFP is intracellularly released while maintaining its activity, localization of green fluorescence in the nuclei is observed. […] A high activity of HAad to release endosome-encapsulated substances was also confirmed in this system.

HeLa cells [3] = test: Release of Alexa 488-dextran (10 kDa) into the cytoplasm, confocal microscopy; remark: listed apart in the source

## CC[C@H](C)[C@H](N)C(=O)N[C@@H](Cc1c[nH]c2ccccc12)C(=O)N[C@@H](CC(C)C)C(=O)N[C@H](C(=O)N[C@@H](C)C(=O)N[C@@H](CC(C)C)C(=O)N[C@@H](CCCCN)C(=O)N[C@@H](Cc1ccccc1)C(=O)N[C@@H](CC(C)C)C(=O)NCC(=O)N[C@@H](CCCCN)C(=O)N[C@@H](C)C(=O)N[C@@H](C)C(=O)N[C@@H](C)C(=O)N[C@@H](CCCCN)C(=O)N[C@@H](C)C(=O)N[C@@H](CCCC(=O)O)C(=O)N[C@@H](C)C(=O)N[C@@H](CCCCN)C(=O)N[C@@H](CCC(N)=O)C(=O)N[C@@H](CCCC(=O)O)C(=O)N[C@@H](CC(C)C)C(=O)N[C@@H](CO)C(=O)N[C@@H](CCCCN)C(=O)N[C@@H](CC(C)C)C(N)=O)[C@@H](C)O [HAad, H-IWLTALKFLGKAAAKAXAKQXLSKL-amide] (HELM PEPTIDE1{I.W.L.T.A.L.K.F.L.G.K.A.A.A.K.A.[O=C(O)CCC[C@H](N[*:1])C(=O)[*:2]].A.K.Q.[O=C(O)CCC[C@H](N[*:1])C(=O)[*:2]].L.S.K.L.[am]}$$$$V2.0)
HeLa cells [1]; peptide 20 μM, Alexa 488-dextran (10 kDa) 200 μg/mL, 1 hour in α-MEM(−)
  cells in which release of Alexa 488-dextran into the cytoplasm was observed: about 40%
HeLa cells [1]; peptide 40 μM, Alexa 488-dextran 200 μg/mL, 1 hr, compared with L17E
  endosome-encapsulated substance (Alexa 488-dextran) releasing activity, in words: higher endosomal content release activity than L17E; also recorded: Significant outflow; also recorded: much more effectively
HeLa cells [1]; peptide 40 μM, Alexa 488-dextran (10 kDa) 200 μg/mL, 1 hour in α-MEM(−)
  cells in which Alexa 488-dextran release into the cytosol was observed: about 75%
NIH3T3 cells; 40 μM
  intracellular release of dextran relative to L17E: twice
NIH3T3 cells; peptide 40 μM, dextran (10 kDa), DEME(−) medium 1 hour
  cells in which intracellular release of dextran was observed: about 35%
RAW 264.7 cells
  cell viability relative to that in the presence of L17E: ¼
HeLa cells [2]
  cells in which localization of NLS-EGFP in the nuclei was observed: about 84%
HeLa cells [3]; Alexa 488-dextran (10 kDa) 200 μg/mL, 1 hour, read-out: peptide concentration required to detect the signal of intracellularly released Alexa 488-dextran in 50% of the cells
  EC50: 20 µM
HeLa cells [3]; dextran release, HAad vs L17E
  EC50 relative to L17E: ½
